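All cell lines were grown in 96-well plates and treated with compound for 48 hours. The concentration for 50% growth inhibition is given as GI50. TGI: concentration producing complete growth inhibition.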
Legend:
Test in all cases: growth of human tumour cells (NCI), 48 h
SK-MEL-28 melanoma = tested on: SK-MEL-28 melanoma
HCT-116 colon = tested on: HCT-116 colon
M14 melanoma = tested on: M14 melanoma
NCI-H226 lung = tested on: NCI-H226 lung
NCI-H460 lung = tested on: NCI-H460 lung
HCT-15 colon = tested on: HCT-15 colon
SW-620 colon = tested on: SW-620 colon
UACC-257 melanoma = tested on: UACC-257 melanoma
UO-31 renal = tested on: UO-31 renal
CAKI-1 renal = tested on: CAKI-1 renal
SNB-19 CNS = tested on: SNB-19 CNS
A549 NSCLC = tested on: A549 NSCLC
IGROV1 ovarian = tested on: IGROV1 ovarian
OVCAR-8 ovarian = tested on: OVCAR-8 ovarian
U251 CNS = tested on: U251 CNS
MOLT-4 leukemia = tested on: MOLT-4 leukemia
EKVX NSCLC = tested on: EKVX NSCLC
COLO 205 colon = tested on: COLO 205 colon
DU-145 prostate = tested on: DU-145 prostate
SF-268 CNS = tested on: SF-268 CNS
HCC-2998 colon = tested on: HCC-2998 colon
NCI/ADR-RES ovarian = tested on: NCI/ADR-RES ovarian
HOP-62 NSCLC = tested on: HOP-62 NSCLC
HOP-92 NSCLC = tested on: HOP-92 NSCLC
HT29 colon = tested on: HT29 colon
HS 578T breast = tested on: HS 578T breast
MALME-3M melanoma = tested on: MALME-3M melanoma
OVCAR-3 ovarian = tested on: OVCAR-3 ovarian
MDA-MB-435 = tested on: MDA-MB-435
SK-OV-3 ovarian = tested on: SK-OV-3 ovarian
HL-60(TB) leukemia = tested on: HL-60(TB) leukemia
SR leukemia = tested on: SR leukemia
SK-MEL-2 melanoma = tested on: SK-MEL-2 melanoma
OVCAR-5 ovarian = tested on: OVCAR-5 ovarian
NCI-H522 lung = tested on: NCI-H522 lung
TK-10 renal = tested on: TK-10 renal
BT-549 breast = tested on: BT-549 breast
UACC-62 melanoma = tested on: UACC-62 melanoma
OVCAR-4 ovarian = tested on: OVCAR-4 ovarian
SF-295 CNS = tested on: SF-295 CNS
LOX IMVI melanoma = tested on: LOX IMVI melanoma
MDA-MB-231 breast = tested on: MDA-MB-231 breast
SN12C renal = tested on: SN12C renal
SNB-75 CNS = tested on: SNB-75 CNS
T-47D breast = tested on: T-47D breast
NCI-H23 lung = tested on: NCI-H23 lung
RPMI-8226 leukemia = tested on: RPMI-8226 leukemia
KM12 colon = tested on: KM12 colon
ACHN renal = tested on: ACHN renal
CCRF-CEM leukemia = tested on: CCRF-CEM leukemia
SK-MEL-5 melanoma = tested on: SK-MEL-5 melanoma
MCF7 breast = tested on: MCF7 breast
SF-539 CNS = tested on: SF-539 CNS
786-0 renal = tested on: 786-0 renal
RXF 393 renal = tested on: RXF 393 renal

Compound `CN(C)CCC(=O)C(=Cc1ccc(O)cc1)C(=O)CCN(C)C` has a GI50 (SK-MEL-28 melanoma) greater than 100 µM, a TGI (SK-MEL-28 melanoma) greater than 100 µM and a GI50 (HCT-116 colon) of 44.8 µM. It also gave a TGI (HCT-116 colon) greater than 100 µM, a GI50 (M14 melanoma) greater than 100 µM and a TGI (M14 melanoma) greater than 100 µM. The GI50 (NCI-H226 lung) was greater than 100 µM, the TGI (NCI-H226 lung) was greater than 100 µM and the GI50 (NCI-H460 lung) was greater than 100 µM. For the same compound, the TGI (NCI-H460 lung) was greater than 100 µM, the GI50 (HCT-15 colon) was 52.5 µM and the TGI (HCT-15 colon) was greater than 100 µM. It also gave a GI50 (SW-620 colon) of 67.2 µM, a TGI (SW-620 colon) greater than 100 µM and a GI50 (UACC-257 melanoma) greater than 100 µM. For the same compound, the TGI (UACC-257 melanoma) was greater than 100 µM, the GI50 (UO-31 renal) was 25.2 µM and the TGI (UO-31 renal) was 69.8 µM. It also gave a GI50 (CAKI-1 renal) of 16.4 µM, a TGI (CAKI-1 renal) of 32.5 µM and a GI50 (SNB-19 CNS) greater than 100 µM. For the same compound, the TGI (SNB-19 CNS) was greater than 100 µM, the GI50 (A549 NSCLC) was greater than 100 µM and the TGI (A549 NSCLC) was greater than 100 µM. For the same compound, the GI50 (IGROV1 ovarian) was greater than 100 µM, the TGI (IGROV1 ovarian) was greater than 100 µM and the GI50 (OVCAR-8 ovarian) was greater than 100 µM. For the same compound, the TGI (OVCAR-8 ovarian) was greater than 100 µM, the GI50 (U251 CNS) was 61.5 µM and the TGI (U251 CNS) was greater than 100 µM. It also gave a GI50 (MOLT-4 leukemia) of 80 µM, a TGI (MOLT-4 leukemia) greater than 100 µM and a GI50 (EKVX NSCLC) greater than 100 µM. The TGI (EKVX NSCLC) was greater than 100 µM, the GI50 (COLO 205 colon) was 50.9 µM and the TGI (COLO 205 colon) was greater than 100 µM. It also gave a GI50 (DU-145 prostate) greater than 100 µM, a TGI (DU-145 prostate) greater than 100 µM and a GI50 (SF-268 CNS) greater than 100 µM. For the same compound, the TGI (SF-268 CNS) was greater than 100 µM, the GI50 (HCC-2998 colon) was greater than 100 µM and the TGI (HCC-2998 colon) was greater than 100 µM. For the same compound, the GI50 (NCI/ADR-RES ovarian) was greater than 100 µM, the TGI (NCI/ADR-RES ovarian) was greater than 100 µM and the GI50 (HOP-62 NSCLC) was greater than 100 µM. For the same compound, the TGI (HOP-62 NSCLC) was greater than 100 µM, the GI50 (HOP-92 NSCLC) was 95.6 µM and the TGI (HOP-92 NSCLC) was greater than 100 µM. The GI50 (HT29 colon) was 34.4 µM, the TGI (HT29 colon) was greater than 100 µM and the GI50 (HS 578T breast) was greater than 100 µM. The TGI (HS 578T breast) was greater than 100 µM, the GI50 (MALME-3M melanoma) was greater than 100 µM and the TGI (MALME-3M melanoma) was greater than 100 µM. It also gave a GI50 (OVCAR-3 ovarian) greater than 100 µM, a TGI (OVCAR-3 ovarian) greater than 100 µM and a GI50 (MDA-MB-435) greater than 100 µM. It also gave a TGI (MDA-MB-435) greater than 100 µM, a GI50 (SK-OV-3 ovarian) greater than 100 µM and a TGI (SK-OV-3 ovarian) greater than 100 µM. It also gave a GI50 (HL-60(TB) leukemia) greater than 100 µM, a TGI (HL-60(TB) leukemia) greater than 100 µM and a GI50 (SR leukemia) of 93.2 µM. The TGI (SR leukemia) was greater than 100 µM, the GI50 (SK-MEL-2 melanoma) was greater than 100 µM and the TGI (SK-MEL-2 melanoma) was greater than 100 µM. For the same compound, the GI50 (OVCAR-5 ovarian) was greater than 100 µM, the TGI (OVCAR-5 ovarian) was greater than 100 µM and the GI50 (NCI-H522 lung) was 16.4 µM. The TGI (NCI-H522 lung) was 38.9 µM, the GI50 (TK-10 renal) was greater than 100 µM and the TGI (TK-10 renal) was greater than 100 µM. For the same compound, the GI50 (BT-549 breast) was greater than 100 µM, the TGI (BT-549 breast) was greater than 100 µM and the GI50 (UACC-62 melanoma) was greater than 100 µM. The TGI (UACC-62 melanoma) was greater than 100 µM, the GI50 (OVCAR-4 ovarian) was 26.2 µM and the TGI (OVCAR-4 ovarian) was greater than 100 µM. For the same compound, the GI50 (SF-295 CNS) was greater than 100 µM, the TGI (SF-295 CNS) was greater than 100 µM and the GI50 (LOX IMVI melanoma) was 79.6 µM. For the same compound, the TGI (LOX IMVI melanoma) was greater than 100 µM, the GI50 (MDA-MB-231 breast) was greater than 100 µM and the TGI (MDA-MB-231 breast) was greater than 100 µM. The GI50 (SN12C renal) was greater than 100 µM, the TGI (SN12C renal) was greater than 100 µM and the GI50 (SNB-75 CNS) was greater than 100 µM. For the same compound, the TGI (SNB-75 CNS) was greater than 100 µM, the GI50 (T-47D breast) was 47.7 µM and the TGI (T-47D breast) was greater than 100 µM. It also gave a GI50 (NCI-H23 lung) greater than 100 µM, a TGI (NCI-H23 lung) greater than 100 µM and a GI50 (RPMI-8226 leukemia) of 27.8 µM. The TGI (RPMI-8226 leukemia) was greater than 100 µM, the GI50 (KM12 colon) was 41.9 µM and the TGI (KM12 colon) was greater than 100 µM. It also gave a GI50 (ACHN renal) greater than 100 µM, a TGI (ACHN renal) greater than 100 µM and a GI50 (CCRF-CEM leukemia) of 43.4 µM. For the same compound, the TGI (CCRF-CEM leukemia) was greater than 100 µM, the GI50 (SK-MEL-5 melanoma) was greater than 100 µM and the TGI (SK-MEL-5 melanoma) was greater than 100 µM. The GI50 (MCF7 breast) was 30.9 µM, the TGI (MCF7 breast) was greater than 100 µM and the GI50 (SF-539 CNS) was greater than 100 µM. It also gave a TGI (SF-539 CNS) greater than 100 µM, a GI50 (786-0 renal) greater than 100 µM and a TGI (786-0 renal) greater than 100 µM. It also gave a GI50 (RXF 393 renal) greater than 100 µM and a TGI (RXF 393 renal) greater than 100 µM.

From PubChem BioAssay (NCI)
